# Laboratory results published in patent US20250230193A1, “CYCLIC COMPOUND HAVING SELECTIVE KRAS INHIBITORY EFFECT ON HRAS AND NRAS” (CHUGAI SEIYAKU KABUSHIKI KAISHA, priority 2022, published 2025).
# Columns and labels:
# [1] = biological target: GDP-bound NRAS wild-type protein (Homo sapiens, UniProt P01111); assay: Binding to NRAS by surface plasmon resonance (SPR), Single Cycle Kinetics; conditions: KD ratio NRAS/KRAS, class symbols
# [2] = biological target: GDP-bound HRAS wild-type protein (Homo sapiens, UniProt P01112); assay: Binding to HRAS by surface plasmon resonance (SPR), Single Cycle Kinetics; conditions: KD ratio HRAS/KRAS, class symbols
# Sequence of GDP-bound HRAS wild-type protein (P01112 whole entry): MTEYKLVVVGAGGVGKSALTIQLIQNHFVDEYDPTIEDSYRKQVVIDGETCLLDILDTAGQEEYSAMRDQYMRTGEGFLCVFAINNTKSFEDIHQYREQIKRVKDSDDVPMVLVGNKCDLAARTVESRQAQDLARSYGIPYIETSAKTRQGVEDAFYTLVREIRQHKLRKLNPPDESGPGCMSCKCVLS
# Sequence of GDP-bound NRAS wild-type protein (P01111 whole entry): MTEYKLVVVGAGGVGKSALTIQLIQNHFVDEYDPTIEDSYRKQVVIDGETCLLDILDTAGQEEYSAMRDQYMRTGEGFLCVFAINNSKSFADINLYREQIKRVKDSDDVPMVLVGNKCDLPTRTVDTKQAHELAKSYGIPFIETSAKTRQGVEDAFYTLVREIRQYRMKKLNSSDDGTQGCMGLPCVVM
Structure (SMILES),NRAS/KRAS (ratio of KD value with respect to GDP-bound NRAS wild-type protein to KD value with respect to KRAS) [1],HRAS/KRAS (ratio of KD value with respect to GDP-bound HRAS wild-type protein to KD value with respect to KRAS) [2]
CCC[C@H]1C(=O)N[C@@H]([C@@H](C)CC)C(=O)N(C)CC(=O)N(C)[C@H]2C/C=C\CCN(C2=O)[C@@H](Cc2ccc(C)cc2)C(=O)N(C)CC(=O)N[C@@H](CCc2ccc(Cl)c(Cl)c2)C(=O)N2C[C@H](OCC)C[C@H]2C(=O)NC2(CC(C)(C)C2)C(=O)N(C)[C@@H](CC2CC2)C(=O)N(C)[C@H](C(=O)N(C)C)CC(=O)N1C [PP2799],A (a compound having 10 or more and less than 20 is denoted as A),A (a compound having 10 or more and less than 20 is denoted as A)
CCCC[C@H]1C(=O)N[C@@H]([C@@H](C)CC)C(=O)N(C)CC(=O)N(C)[C@H]2C/C=C\CCN(C2=O)[C@@H](Cc2ccc(C)cc2)C(=O)N(C)CC(=O)N[C@@H](CCc2cc(F)c(C(F)(F)F)c(F)c2)C(=O)N2C[C@H](OCC)C[C@H]2C(=O)NC2(CC(C)(C)C2)C(=O)N(C)[C@@H](C2CCCC2)C(=O)N(C)[C@H](C(=O)N(C)C)CC(=O)N1C [PP2800],A (a compound having 10 or more and less than 20 is denoted as A),A (a compound having 10 or more and less than 20 is denoted as A)
CC[C@H](C)[C@@H]1NC(=O)[C@H](CC2CC2)N(C)C(=O)C[C@@H](C(=O)N(C)CC)N(C)C(=O)[C@H](C2CCCC2)N(C)C(=O)C2(CC(C)(C)C2)NC(=O)[C@@H]2C[C@@H](F)CN2C(=O)[C@H](CCc2cc(F)c(C(F)(F)F)c(F)c2)NC(=O)CN(C)C(=O)[C@H](Cc2ccc(C)cc2)N2CC/C=C\C[C@@H](C2=O)N(C)C(=O)CN(C)C1=O [PP2802],AA (a compound having 20 or more is denoted as AA),A (a compound having 10 or more and less than 20 is denoted as A)
CCC[C@H]1C(=O)N[C@@H]([C@@H](C)CC)C(=O)N(C2CC2)CC(=O)N(C)[C@H]2C/C=C\CCN(C2=O)[C@@H](Cc2ccc(C)cc2)C(=O)N(C)CC(=O)N[C@@H](CCc2ccc(C(F)(F)F)c(OC)c2)C(=O)N2C[C@H](OCC)C[C@H]2C(=O)NC2(CC(C)(C)C2)C(=O)N(C)[C@@H](CC2CC2)C(=O)N(C)[C@H](C(=O)N(C)C)CC(=O)N1C [PP2803],A (a compound having 10 or more and less than 20 is denoted as A),A (a compound having 10 or more and less than 20 is denoted as A)
CC[C@H](C)[C@@H]1NC(=O)[C@H](CC2CC2)N(C)C(=O)C[C@@H](C(=O)N(C)C)N(C)C(=O)[C@H](C2CCCC2)N(C)C(=O)C2(CC(C)(C)C2)NC(=O)[C@@H]2C[C@@H](F)CN2C(=O)[C@H](CCc2cc(F)c(C(F)(F)F)c(F)c2)NC(=O)CN(C)C(=O)[C@H](Cc2ccc(C)cc2)N2CC/C=C\C[C@@H](C2=O)N(C)C(=O)CN(C)C1=O [PP2804],A (a compound having 10 or more and less than 20 is denoted as A),A (a compound having 10 or more and less than 20 is denoted as A)
CCC[C@H]1C(=O)N[C@@H]([C@@H](C)CC)C(=O)N(C2CC2)CC(=O)N(C)[C@H]2C/C=C\CCN(C2=O)[C@@H](Cc2ccc(C)cc2)C(=O)N(C)CC(=O)N[C@@H](CCc2ccc(Cl)c(Cl)c2)C(=O)N2C[C@H](OCC)C[C@H]2C(=O)NC2(CC(C)(C)C2)C(=O)N(C)[C@@H](CC2CC2)C(=O)N(C)[C@H](C(=O)N(C)C)CC(=O)N1C [PP2805],A (a compound having 10 or more and less than 20 is denoted as A),A (a compound having 10 or more and less than 20 is denoted as A)
CCCC[C@H]1C(=O)N[C@@H]([C@@H](C)CC)C(=O)N(C)CC(=O)N(C)[C@H]2C/C=C\CCN(C2=O)[C@@H](Cc2ccc(C(F)(F)F)cc2)C(=O)N(C)CC(=O)N[C@@H](CCc2cc(F)c(C(F)(F)F)c(F)c2)C(=O)N2C[C@H](OCC)C[C@H]2C(=O)NC2(CC(C)(C)C2)C(=O)N(C)[C@@H](C2CCCC2)C(=O)N(C)[C@H](C(=O)N(C)CC)CC(=O)N1C [PP2806],A (a compound having 10 or more and less than 20 is denoted as A),A (a compound having 10 or more and less than 20 is denoted as A)
CCC[C@H]1C(=O)N[C@@H]([C@@H](C)CC)C(=O)N(C)CC(=O)N(C)[C@H]2C/C=C\CCN(C2=O)[C@@H](Cc2ccc(C(F)(F)F)cc2)C(=O)N(C)CC(=O)N[C@@H](CCc2cc(F)c(C(F)(F)F)c(F)c2)C(=O)N2C[C@H](OCC)C[C@H]2C(=O)NC2(CC(C)(C)C2)C(=O)N(C)[C@@H](CC2CC2)C(=O)N(C)[C@H](C(=O)N(C)C)CC(=O)N1C [PP2807],AA (a compound having 20 or more is denoted as AA),A (a compound having 10 or more and less than 20 is denoted as A)
